# According to patent publication US6548242B2, “Process for the sterilization of biological compositions and the product thereby” (priority 1990, dated 2003):
# “And” between values parts separate entries of the source, which are not always exact repeats. Identical values can stand only once.
# How the values were obtained:
# platelets [1] = experiment: Platelet aggregation in response to collagen after treatment of platelet concentrate; assay type: cell-based
# [2] = test system: cell-free vesicular stomatitis virus (VSV); assay type: cell-based
# cell-associated VSV = assay type: cell-based, vesicular stomatitis virus
# bacteriophage M13 = assay type: cell-based
# [3] = test system: encephalomyocarditis virus (EMC); assay type: cell-based
# lymphocytes = experiment: Lymphocyte inactivation, 3H thymidine uptake after mitogen stimulation; assay type: cell-based; settings: 15 Gy γ-irradiation
# platelets [4] = experiment: Platelet aggregation response to arachidonic acid and ADP after γ-irradiation of PCs; assay type: cell-based; settings: 2 mM rutin
# platelets [5] = experiment: Survival of infused radiolabeled UVB-irradiated platelets; assay type: in vivo, dogs; settings: dog PCs, 36 mJ/cm^2 UVB in presence of 2 mM rutin, 51chromium label
# RBCCs = experiment: Extracellular (plasma) potassium of stored RBCCs
# [6] = test system: red blood cell concentrate; experiment: Red cell hemolysis after X-irradiation of red blood cell concentrate; settings: brominated hematoporphyrin derivative, 1 mm rutin
# [7] = 25 μg/ml AMT and 90 minutes of UVA in presence of flavonoid, overnight storage
# [8] = 50 μg/ml AMT, 90 minute UVA, air, +0.5 mM Rutin, experiments 1-5
# [9] = flavonoid present, no AMT/UVA treatment, overnight storage
smiles,measurement,setting,value
C[C@@H]1O[C@@H](OC[C@H]2O[C@@H](Oc3c(-c4ccc(O)c(O)c4)oc4cc(O)cc(O)c4c3=O)[C@H](O)[C@@H](O)[C@@H]2O)[C@H](O)[C@H](O)[C@H]1O [rutin],"% Untreated Control - Extent of Aggregation Response to Collagen, treated",platelets [1]; [7],100/100 % Untreated Control
same,"% Untreated Control - Rate of Aggregation Response to Collagen, treated",platelets [1]; [7],100/100 % Untreated Control
same,"Platelet aggregation, first value of pair (extent as in Table III)",platelets [1]; [8],95 and 96/96 and 100 and 100/100 and 98
same,"Platelet aggregation, second value of pair (rate as in Table III)",platelets [1]; [8],90 and 96/96 and 84 and 100/100 and 95
same,agg response,"platelets [1]; Platelet Conc., 50 μg/ml AMT + 57 J/cm^2 UVA, 0.35 mM rutin",85%
same,"% Untreated Control - Extent of Aggregation Response to Collagen, untreated",platelets [1]; [9],100/100 % Untreated Control
same,"% Untreated Control - Rate of Aggregation Response to Collagen, untreated",platelets [1]; [9],100/100 % Untreated Control
same,aggregation function,"platelets [1]; platelet conc., 25, 50 or 100 μg/ml AMT, 90 min UVA, 0.7 mM rutin",more than 80 % of the control
same,LOG10 VIRUS KILL VSV,[2],≧6 LOG10
same,Virus Kill (log10) VSV,[2],≧5.4 log10
same,kill of VSV,[2],exceeded 5 log10
same,inactivation of cell-associated VSV,cell-associated VSV,~6 log10
same,LOG10 VIRUS KILL M13,bacteriophage M13,6 LOG10 and 3 LOG10 and 5 LOG10
same,Virus Kill (log10) EMC,[3],≧7.7 log10
same,3H thymidine uptake retained by irradiated lymphocytes,"lymphocytes; PCs, independent of presence or concentration of rutin",1.5%
same,3H thymidine uptake retained by irradiated lymphocytes,"lymphocytes; RBCCs, independent of presence or concentration of rutin (0.5, 1 or 2 mM)",1.5%
same,rate of aggregation,"platelets [4]; 50 Gy γ-irradiation, 3 day storage",80 % of the control
same,Platelet aggregation,"platelets [4]; γ-irradiation 15-50 Gy, after 1 day",95%
same,Survival of UV-exposed donor platelets,platelets [5],5 days
same,plasma K+,"RBCCs; RBCC, AlPcS4 treatment then γ-irradiation 25 Gy, rutin present during γ-irradiation and storage, 2 days",25 mM
same,plasma K+,"RBCCs; RBCC, AlPcS4 treatment then γ-irradiation 25 Gy, rutin present during γ-irradiation and storage, 7 days",40 mM
same,plasma K+,"RBCCs; RBCCs, 50 Gy γ-irradiation, 2 mM rutin present during treatment",40 mM
same,Extracellular potassium,"RBCCs; RBCCs, γ-irradiation, 2 mM rutin",decreased to control levels
same,red cell hemolysis,[6],less than 2%
